# Test results taken from the supplement of paper PMC11451515.
# Test system: P12-Ichikawa
# Assay: cell viability relative to DMSO control; higher = less cytotoxic
# Conditions: 48 h
# Procedure, shortened: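 NOMO1, SEM and P12-Ichikawa leukemia cells spent at least four passages adapting to each medium before use. They were seeded at 500 cells/well (NOMO1, SEM) or 1000 cells/well (P12-Ichikawa) in 5 μl in 1536-well plates and pin-dosed with library compounds in DMSO at 11 threefold steps from 47 μM down to 0.79 nM. After 48 h at 37°C, CellTiter-Glo One luminescence was read. Viability is reported as a percentage of the DMSO wells on each plate, with cell-free wells as background.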
# [1] = HPLM + 10% dialyzed FBS, 0.000781 µM
# [2] = HPLM + 10% dialyzed FBS, 0.00234 µM
# [3] = HPLM + 10% dialyzed FBS, 0.00702 µM
# [4] = HPLM + 10% dialyzed FBS, 0.0211 µM
# [5] = HPLM + 10% dialyzed FBS, 0.0632 µM
# [6] = HPLM + 10% dialyzed FBS, 0.19 µM
# [7] = HPLM + 10% dialyzed FBS, 0.569 µM
# [8] = HPLM + 10% dialyzed FBS, 1.71 µM
# [9] = HPLM + 10% dialyzed FBS, 5.12 µM
# [10] = HPLM + 10% dialyzed FBS, 15.4 µM
# [11] = HPLM + 10% dialyzed FBS, 46.1 µM
# [12] = RPMI 5 mM glucose + 10% FBS, 0.000781 µM
# [13] = RPMI 5 mM glucose + 10% FBS, 0.00234 µM
# [14] = RPMI 5 mM glucose + 10% FBS, 0.00702 µM
# [15] = RPMI 5 mM glucose + 10% FBS, 0.0211 µM
# [16] = RPMI 5 mM glucose + 10% FBS, 0.0632 µM
# [17] = RPMI 5 mM glucose + 10% FBS, 0.19 µM
# [18] = RPMI 5 mM glucose + 10% FBS, 0.569 µM
# [19] = RPMI 5 mM glucose + 10% FBS, 1.71 µM
# [20] = RPMI 5 mM glucose + 10% FBS, 5.12 µM
# [21] = RPMI 5 mM glucose + 10% FBS, 15.4 µM
# [22] = RPMI 5 mM glucose + 10% FBS, 46.1 µM
# [23] = RPMI 5 mM glucose + 10% dialyzed FBS, 0.000781 µM
# [24] = RPMI 5 mM glucose + 10% dialyzed FBS, 0.00234 µM
# [25] = RPMI 5 mM glucose + 10% dialyzed FBS, 0.00702 µM
# [26] = RPMI 5 mM glucose + 10% dialyzed FBS, 0.0211 µM
# [27] = RPMI 5 mM glucose + 10% dialyzed FBS, 0.0632 µM
# [28] = RPMI 5 mM glucose + 10% dialyzed FBS, 0.19 µM
# [29] = RPMI 5 mM glucose + 10% dialyzed FBS, 0.569 µM
# [30] = RPMI 5 mM glucose + 10% dialyzed FBS, 1.71 µM
# [31] = RPMI 5 mM glucose + 10% dialyzed FBS, 5.12 µM
# [32] = RPMI 5 mM glucose + 10% dialyzed FBS, 15.4 µM
# [33] = RPMI 5 mM glucose + 10% dialyzed FBS, 46.1 µM
SMILES,cell viability [1],cell viability [2],cell viability [3],cell viability [4],cell viability [5],cell viability [6],cell viability [7],cell viability [8],cell viability [9],cell viability [10],cell viability [11],cell viability [12],cell viability [13],cell viability [14],cell viability [15],cell viability [16],cell viability [17],cell viability [18],cell viability [19],cell viability [20],cell viability [21],cell viability [22],cell viability [23],cell viability [24],cell viability [25],cell viability [26],cell viability [27],cell viability [28],cell viability [29],cell viability [30],cell viability [31],cell viability [32],cell viability [33]
O=S(=O)([O-])CCS.[Na+],109%,122%,125%,119%,127%,126%,126%,129%,30.8%,18.1%,15.3%,100%,114%,116%,118%,132%,121%,136%,134%,37%,18.5%,16.7%,114%,121%,121%,120%,130%,131%,135%,139%,80.8%,43.2%,20.1%
Cc1cc(OCCC[S+](C)(=O)[O-])cc(C)c1-c1cccc(COc2ccc3c(c2)OC[C@H]3CC(=O)O)c1,100%,104%,98.1%,108%,97%,94.8%,97.4%,93.6%,91.6%,94.2%,68.6%,105%,106%,110%,103%,101%,100%,98.1%,84.2%,84.9%,86.8%,49.3%,93.1%,96.2%,102%,98.5%,96.1%,97.7%,91.1%,84.3%,84.7%,82.4%,46.1%
O=[N+]([O-])c1ncc[nH]1,93.7%,88%,88.2%,83.4%,97%,102%,88.4%,81%,84.5%,75.4%,80.5%,88%,91%,84.6%,84.8%,91.6%,86.9%,78%,74.1%,81%,70.5%,78.8%,88.7%,86.1%,82.7%,98.4%,104%,99.9%,65.7%,78%,98%,71%,80.5%
O=C(O)CCCCC(CCSCc1ccccc1)SCc1ccccc1 (centres undefined),108%,115%,114%,109%,120%,116%,122%,113%,118%,62.1%,9.29%,112%,117%,138%,119%,128%,132%,130%,135%,121%,119%,58.4%,106%,116%,116%,111%,122%,124%,121%,122%,116%,101%,52.9%
CCN(CC)CCOc1ccc(Cc2ccccc2)cc1,103%,104%,102%,101%,98.9%,103%,105%,95.4%,85.2%,29.8%,22.8%,101%,95.9%,95.1%,95.9%,99.4%,98.5%,102%,93%,85.7%,77.6%,79.3%,87.1%,96%,86.5%,97.8%,93.4%,89.8%,99.5%,93.1%,92%,52%,34.4%
CCOC(=O)C(C#N)C\1C2=CC(=CC=C2O\C(=C1C(=O)OCC)N)Br (centres undefined),100%,103%,108%,92.8%,103%,103%,99.1%,104%,105%,94.6%,75.7%,104%,102%,106%,88.5%,106%,117%,103%,102%,97.9%,90%,89.4%,101%,99.1%,105%,83.9%,94.9%,105%,102%,92.7%,101%,95%,80%
O=C(Nc1nnc(-c2ccco2)o1)c1cc(-c2ccccc2)nc2ccccc12,113%,99.3%,103%,116%,113%,110%,116%,109%,44.4%,3.09%,3.16%,104%,105%,115%,110%,116%,113%,118%,119%,117%,97.8%,6.52%,95.7%,99.8%,99.2%,94.2%,108%,105%,100%,105%,102%,93.2%,7.67%
CC(C)=CCC/C(C)=C/CC/C(C)=C/CSc1ccccc1C(=O)O,103%,121%,117%,113%,119%,105%,91.2%,83.7%,90.6%,61%,36.4%,106%,106%,111%,95.7%,101%,90%,82.1%,67.3%,60%,47.9%,34.4%,104%,112%,120%,116%,98.1%,97.2%,99.5%,76.4%,75.2%,60%,39.8%
